Measurements published in publication PMC8119466, “A screen of FDA-approved drugs identifies inhibitors of protein tyrosine phosphatase 4A3 (PTP4A3 or PRL-3)” (Scientific Reports, 2021).
Counter-ions that a name gives are not always drawn. Like-named read-outs stand apart in the source and are kept apart here.

Assays:
Format in all cases: biochemical
recombinant PRL-1 = biological target: T1, recombinant PRL-1 (Homo sapiens, UniProt Q93096); experiment: In vitro phosphatase assay (DiFMUP hydrolysis), PRL-1; also: test concentration or dose not given here
T1 construct: 6xHis (N, cleaved yes); made in house; host or cells: E. coli One Shot BL21 Star
T1 sequence (Q93096 1-173): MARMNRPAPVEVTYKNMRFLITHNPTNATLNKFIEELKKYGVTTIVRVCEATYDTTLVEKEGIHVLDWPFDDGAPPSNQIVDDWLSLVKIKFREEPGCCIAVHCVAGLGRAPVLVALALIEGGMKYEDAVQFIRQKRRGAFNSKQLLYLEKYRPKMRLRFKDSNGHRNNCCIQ

recombinant PRL-2 = biological target: T2, recombinant PRL-2 (Homo sapiens, UniProt Q12974); experiment: In vitro phosphatase assay (DiFMUP hydrolysis), PRL-2;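 also: PRL-2 activity read as DiFMUP hydrolysis after 20 min at room temperature with drug, enzyme first pre-reduced at 4 °C for 20 min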
T2 construct: 6xHis (N, cleaved yes); made in house; host or cells: E. coli One Shot BL21 Star
T2 sequence (Q12974 1-167): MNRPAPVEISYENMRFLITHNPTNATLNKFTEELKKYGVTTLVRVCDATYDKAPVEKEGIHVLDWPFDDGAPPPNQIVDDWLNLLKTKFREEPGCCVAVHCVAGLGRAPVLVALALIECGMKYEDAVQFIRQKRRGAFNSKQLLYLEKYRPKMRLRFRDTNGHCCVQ

recombinant PRL-3 = biological target: T3, recombinant PRL-3 (Homo sapiens, UniProt O75365); experiment: In vitro phosphatase assay (DiFMUP hydrolysis), PRL-3; also: test concentration or dose not given here
T3 construct: 6xHis (N, cleaved yes); made in house; host or cells: E. coli One Shot BL21 Star

[1] = FDA-approved drug screen, activity compared to DMSO

T3 sequence (O75365 whole entry): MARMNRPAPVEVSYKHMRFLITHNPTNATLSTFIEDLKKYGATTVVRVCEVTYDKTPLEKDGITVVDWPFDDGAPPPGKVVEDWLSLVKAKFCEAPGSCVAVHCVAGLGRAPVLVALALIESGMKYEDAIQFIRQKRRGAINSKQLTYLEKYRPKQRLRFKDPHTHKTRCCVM

| Structure (SMILES) | % Phosphatase Activity (compared to DMSO) PRL-1 (recombinant PRL-1; [1]) [%] | % Phosphatase Activity (compared to DMSO) PRL-2 (recombinant PRL-2; [1]) [%] | % Phosphatase Activity (compared to DMSO) PRL-3 (recombinant PRL-3; [1]) [%] | % Phosphatase Activity (compared to DMSO) PRL-1 (recombinant PRL-1) [%] | % Phosphatase Activity (compared to DMSO) PRL-2 (recombinant PRL-2) [%] | % Phosphatase Activity (compared to DMSO) PRL-3 (recombinant PRL-3) [%] |
| --- | --- | --- | --- | --- | --- | --- |
| CCCc1nc(C)c2c(=O)[nH]c(-c3cc(S(=O)(=O)N4CCN(CC)CC4)ccc3OCC)nn12.Cl.O.O.O [Vardenafil HCl Trihydrate] | 98 | 98 | 84 |  |  |  |
| C[C@@H]1COC(Nc2ccc3ncnc(Nc4ccc(OCc5nccs5)c(Cl)c4)c3c2)=N1 [Varlitinib] | 126 | 142 | 132 |  |  |  |
| Cl.Cl.Clc1ccc(Nc2nnc(Cc3ccncc3)c3ccccc23)cc1 [Vatalanib (PTK787) 2HCl] | 109 | 96 | 72 |  |  |  |
| CC(=O)O[C@H]1C[C@@H]2CC[C@@H]3[C@H](CC[C@@]4(C)[C@H]3C[C@H]([N+]3(C)CCCCC3)[C@@H]4OC(C)=O)[C@@]2(C)C[C@@H]1N1CCCCC1 [Vecuronium Bromide] | 103 | 100 | 87 |  |  |  |
| C[C@]1(c2nc3c(C(N)=O)cccc3[nH]2)CCCN1 [Veliparib (ABT-888)] | 108 | 99 | 83 |  |  |  |
| CCCS(=O)(=O)Nc1ccc(F)c(C(=O)c2c[nH]c3ncc(-c4ccc(Cl)cc4)cc23)c1F [Vemurafenib (PLX4032, RG7204)] | 89 | 89 | 80 |  |  |  |
| COc1ccc(C(CN(C)C)C2(O)CCCCC2)cc1 (stereo not drawn) [Venlafaxine] | 97 | 100 | 84 |  |  |  |
| Nc1ncnc2c1ncn2[C@@H]1O[C@H](CO)[C@@H](O)[C@@H]1O [Vidarabine] | 106 | 116 | 121 |  |  |  |
| COc1cccc(-c2ccc(NC(=O)C3=C(C(=O)O)CCC3)c(F)c2)c1 [Vidofludimus] | 97 | 72 | 91 |  |  |  |
| N#C[C@@H]1CCCN1C(=O)CNC12CC3CC(CC(O)(C3)C1)C2 [Vildagliptin (LAF-237)] | 99 | 136 | 94 |  |  |  |
| CC[C@]1(O)C[C@@H]2CN(CCc3c([nH]c4ccccc34)[C@@](C(=O)OC)(c3cc4c(cc3OC)N(C)[C@H]3[C@@](O)(C(=O)OC)[C@H](OC(C)=O)[C@]5(CC)C=CCN6CC[C@]43[C@@H]65)C2)C1 [Vinblastine sulfate] | 92 | 95 | 91 |  |  |  |
| CC[C@]1(O)C[C@H]2CN(CCc3c([nH]c4ccccc34)[C@@](C(=O)OC)(c3cc4c(cc3OC)N(C=O)[C@H]3[C@@](O)(C(=O)OC)[C@H](OC(C)=O)[C@]5(CC)C=CCN6CC[C@]43[C@@H]65)C2)C1 [Vincristine] | 85 | 100 | 61 |  |  |  |
| CCC1=C[C@@H]2CN(C1)Cc1c([nH]c3ccccc13)[C@@](C(=O)OC)(c1cc3c(cc1OC)N(C)[C@H]1[C@@](O)(C(=O)OC)[C@H](OC(C)=O)[C@]4(CC)C=CCN5CC[C@]31[C@@H]54)C2 [Vinorelbine Tartrate] | 89 | 98 | 83 |  |  |  |
| CCOC(=O)C1=C[C@]2(CC)CCCN3CCc4c(n1c1ccccc41)[C@@H]32 [Vinpocetine] | 95 | 114 | 79 |  |  |  |
| CS(=O)(=O)c1ccc(C(=O)Nc2ccc(Cl)c(-c3ccccn3)c2)c(Cl)c1 [Vismodegib (GDC-0449)] | 94 | 99 | 79 |  |  |  |
| O=C1O[C@H]([C@@H](O)CO)C(O)=C1O [Vitamin C] | 96 | 105 | 75 |  |  |  |
| C=C1CC[C@H](O)C/C1=C/C=C1\CCC[C@]2(C)[C@@H]([C@H](C)/C=C/[C@H](C)C(C)C)CC[C@@H]12 [Vitamin D2] | 95 | 99 | 84 |  |  |  |
| C=C1CC[C@H](O)C/C1=C/C=C1\CCC[C@]2(C)[C@@H]([C@H](C)CCCC(C)C)CC[C@@H]12 [Vitamin D3] | 85 | 95 | 63 |  |  |  |
| OCC(CO)N[C@H]1C[C@](O)(CO)[C@@H](O)[C@H](O)[C@H]1O [Voglibose] | 98 | 104 | 75 |  |  |  |

| Structure (SMILES) | % Phosphatase Activity (compared to DMSO) PRL-1 (recombinant PRL-1; [1]) [%] | % Phosphatase Activity (compared to DMSO) PRL-2 (recombinant PRL-2; [1]) [%] | % Phosphatase Activity (compared to DMSO) PRL-3 (recombinant PRL-3; [1]) [%] | % Phosphatase Activity (compared to DMSO) PRL-1 (recombinant PRL-1) [%] | % Phosphatase Activity (compared to DMSO) PRL-2 (recombinant PRL-2) [%] | % Phosphatase Activity (compared to DMSO) PRL-3 (recombinant PRL-3) [%] |
| --- | --- | --- | --- | --- | --- | --- |
| CC[C@@H]1C(=O)N(C)c2cnc(Nc3ccc(C(=O)N[C@H]4CC[C@H](N5CCN(CC6CC6)CC5)CC4)cc3OC)nc2N1C(C)C [Volasertib (BI 6727)] | 97 | 112 | 87 |  |  |  |
| CCOC(=O)N[C@@H]1CC[C@@H]2[C@@H](C1)C[C@H]1C(=O)O[C@H](C)[C@H]1[C@H]2/C=C/c1ccc(-c2cccc(F)c2)cn1 [Vorapaxar] | 95 | 73 | 86 |  |  |  |
| O=C(CCCCCCC(=O)Nc1ccccc1)NO [Vorinostat (SAHA, MK0683)] | 98 | 89 | 92 |  |  |  |
| CCn1c(=O)c(-c2cc[nH]n2)cc2c(C)nc(N)nc21 [Voxtalisib (XL765, SAR245409)] | 7254 | 5267 | 4492 |  |  |  |
| Cc1cccc(C)c1N=C1NCCCS1 [Xylazine HCl] |  |  |  | 110 | 112 | 91 |
| Cc1cc(C(C)(C)C)cc(C)c1CC1=NCCN1 [Xylometazoline HCl] | 98 | 117 | 88 |  |  |  |
| O=C[C@H](O)[C@@H](O)[C@H](O)CO [Xylose] | 115 | 102 | 68 |  |  |  |
| COCC[n+]1c2c(n(Cc3cnccn3)c1C)C(=O)c1ccccc1C2=O.[Br-] [YM155 (Sepantronium Bromide)] | 11 | 13 | 5 |  |  |  |
| COc1cc(C(=O)NS(=O)(=O)c2ccccc2C)ccc1Cc1cn(C)c2ccc(NC(=O)OC3CCCC3)cc12 [Zafirlukast] | 68 | 66 | 48 |  |  |  |
| Nc1ccn([C@H]2CC[C@@H](CO)O2)c(=O)n1 [Zalcitabine] | 93 | 105 | 89 |  |  |  |
| CC(C(=O)O)c1ccc2c(c1)CC(=O)c1ccccc1S2 (stereo not drawn) [Zaltoprofen] | 109 | 113 | 86 |  |  |  |
| CC(=O)N[C@H]1[C@H]([C@H](O)[C@H](O)CO)OC(C(=O)O)=C[C@@H]1N=C(N)N [Zanamivir] | 90 | 98 | 115 |  |  |  |
| COc1nc(C)cnc1NS(=O)(=O)c1cccnc1-c1ccc(-c2nnco2)cc1 [Zibotentan (ZD4054)] | 99 | 97 | 94 |  |  |  |
| Cc1cn([C@H]2C[C@H](N=[N+]=[N-])[C@@H](CO)O2)c(=O)[nH]c1=O [Zidovudine] | 100 | 112 | 85 |  |  |  |
| CC(c1cc2ccccc2s1)N(O)C(N)=O (stereo not drawn) [Zileuton] | 96 | 86 | 87 |  |  |  |
| Cl.O=C1Cc2cc(CCN3CCN(c4nsc5ccccc45)CC3)c(Cl)cc2N1 [Ziprasidone HCl] | 91 | 91 | 80 |  |  |  |
| CN(C)CCc1c[nH]c2ccc(C[C@H]3COC(=O)N3)cc12 [Zolmitriptan] | 111 | 86 | 80 |  |  |  |
| Cc1ccc(-c2nc3ccc(C)cn3c2CC(=O)N(C)C)cc1 [Zolpidem] | 98 | 97 | 85 |  |  |  |
| NS(=O)(=O)Cc1noc2ccccc12 [Zonisamide] | 104 | 89 | 78 |  |  |  |
